Reference: PMC4669789, “Selective inhibition of HDAC8 decreases neuroblastoma growth in vitro and in vivo and enhances retinoic acid-mediated differentiation” (Cell Death & Disease, 2015)
Values joined by “and” are separate entries in the source; they are usually repeats but may differ in a detail not shown here. Identical values can stand only once.

Columns and labels:
[1] = test system: NMRI Foxn1 nude mice; assay: Blood parameters (clinical chemistry, hematology) at MTD; format: in vivo; settings: n=8, mean ±S.D.
Procedure: (§1) Each dose was tested in a cohort of three animals. Resulting MTDs were validated within cohorts of eight animals for each inhibitor. […] As a reference, the blood of 12 untreated NMRI Foxn1 nude mice was analyzed. […] Vorinostat was used as a control for unselective HDAC inhibition.
(§2) DLTs were monitored by observation of general condition and determination of body weight. We used several criteria for objectively measuring DLT. These included a decrease in body weight of ≥20% compared with baseline body weight, blood analysis of standard parameters for clinical chemistry and hematology (central laboratory of University Hospital Heidelberg, Heidelberg, Germany) and organ histopathology (formalin-fixed, paraffin-embedded organs), by H&E stain for the detection of necrosis (Prof. Dr. AD Gruber, Institute for Veterinary Pathology, Berlin, Germany).

[2] = target: T1, HDAC7 (Homo sapiens, UniProt Q8WUI4); assay: In vitro HDAC activity assay (Reaction Biology); format: biochemical; settings: cell-free; read-out: IC50 values of HDAC8 inhibitors, HDAC7
T1 sequence (Q8WUI4 512-865 limits assumed): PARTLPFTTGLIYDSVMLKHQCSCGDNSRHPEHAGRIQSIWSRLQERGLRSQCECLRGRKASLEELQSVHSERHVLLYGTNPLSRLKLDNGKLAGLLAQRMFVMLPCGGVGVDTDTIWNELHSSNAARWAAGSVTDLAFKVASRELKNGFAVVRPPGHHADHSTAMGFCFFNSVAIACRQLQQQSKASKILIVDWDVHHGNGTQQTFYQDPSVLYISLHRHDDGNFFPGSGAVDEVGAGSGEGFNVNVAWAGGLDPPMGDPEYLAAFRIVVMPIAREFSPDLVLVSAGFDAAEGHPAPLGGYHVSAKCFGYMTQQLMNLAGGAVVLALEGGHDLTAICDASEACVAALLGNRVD
Procedure: (§3) Peptide substrate was conjugated with AMC. […] The HDAC reaction was performed at 30 °C for 2 h before adding the developer reagent. The free AMC was detected with excitation of 360 nm and emission 460 nm at kinetic mode for 90 min. IC50 values were calculated with GraphPad Prism version 3.0a (GraphPad Software Inc., San Diego, CA, USA).

[3] = target: HDAC4 (Homo sapiens, UniProt P56524); assay: In vitro HDAC activity assay (Reaction Biology); format: biochemical; settings: cell-free; read-out: IC50 values of HDAC8 inhibitors, HDAC4
Procedure: as §3

[4] = target: T2, HDAC8 (Homo sapiens, UniProt Q9BY41); assay: In vitro HDAC activity assay (Reaction Biology); format: biochemical; settings: cell-free; read-out: IC50 values of HDAC8 inhibitors, HDAC8
T2 sequence (Q9BY41 14-324 limits assumed): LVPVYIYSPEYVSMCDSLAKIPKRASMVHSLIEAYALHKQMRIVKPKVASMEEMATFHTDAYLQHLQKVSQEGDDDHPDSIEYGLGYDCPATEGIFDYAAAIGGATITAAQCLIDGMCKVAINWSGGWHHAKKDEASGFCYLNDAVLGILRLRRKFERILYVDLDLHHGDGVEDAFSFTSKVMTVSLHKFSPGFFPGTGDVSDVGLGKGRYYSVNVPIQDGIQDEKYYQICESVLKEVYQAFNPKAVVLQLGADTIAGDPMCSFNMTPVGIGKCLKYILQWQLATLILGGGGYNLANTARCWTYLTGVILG
Procedure: as §3

[5] = Determination of inhibitor plasma half-life; format: in vivo, mouse
[6] = test system: PBMC; assay: Western blot of histone 4 and α-tubulin acetylation in PBMC of treated mice; format: in vivo, mouse; settings: MTD concentrations, 2 h after intraperitoneal injection
Procedure: Whole blood (100 μl) was collected from the femoral vein of untreated athymic NMRI nude mice (HsdCpb:NMRI-Foxn1^nu; Harlan Laboratories Inc.), and respective animals were killed 2 h after intraperitoneal injection of substances. For the analysis of whole acetylation levels, mice were killed at half-life time of the inhibitors. Whole blood with heparin was added to RBC lysis buffer (diluted 1 : 10) (BioLegend, San Diego, CA, USA) at a ratio of 1 : 4. Next, red blood cell lysis was performed according to the manufacturer's instructions. PBMCs were lysed in SDS lysis buffer for western blot or processed for FACS analysis.
Western blot analysis was performed as described previously.[15] For detection of phosphoproteins, PhosStop (Roche, Penzberg, Germany) was added to the lysis buffer. The following antibodies were used for detection: anti-HDAC8 (H-145) (polyclonal; Santa Cruz, Santa Cruz, CA, USA), anti-acetyl tubulin (clone 6-11B-1; Sigma), anti-acetyl-histone H4 (polyclonal; Upstate, Lake Placid, NY, USA), anti-acetyl-SMC3 (provided by Prof. K Shirahige, University of Tokyo, Tokyo, Japan), anti p21^waf1/cip1 (clone CP74; Merck), anti-Trk (C-14) (polyclonal; Santa Cruz), anti-neurofilament-M (polyclonal; Merck), anti-β-actin (clone AC-15; Sigma), anti-P-CREB (Ser133; Cell Signaling, Danvers, MA, USA), anti-CREB (48H2; Cell Signaling) and anti-GAPDH (clone 6C5; Merck).

[7] = target: HDAC1 (Homo sapiens, UniProt Q13547); assay: In vitro HDAC activity assay (Reaction Biology); format: biochemical; settings: cell-free; symbol; read-out: IC50 values of HDAC8 inhibitors, HDAC1
[8] = test system: neuroblastoma cell culture; assay: Intracellular whole lysine acetylation via FACS; format: cell-based, human
Procedure: Cells were collected, washed with PBS and fixed with 2% paraformaldehyde for 15 min at room temperature (RT). Cells were permeabilized by incubation with 50 μg/ml digitonin for 6 min at RT. Cells were incubated with primary antibody overnight at 4 °C. After staining with Cy3-conjugated anti-rabbit antibody, cells were analyzed by FACS using CellQuest software (BD Biosciences, San Jose, CA, USA). The following primary antibodies were used: anti-acetylated lysine (polyclonal; Cell Signaling) and anti-neurofilament-M (clone EP2460; Epitomics, Burlingame, CA, USA).

[9] = test system: NMRI Foxn1 nude mice; assay: Determination of MTD and dose-limiting toxicities
Procedure: as §1, §2

[10] = Determination of MTD and dose-limiting toxicities; settings: NMRI Foxn1 nude, mouse, in vivo, ip
Procedure: as §1, §2

HDAC4, sequence (P56524 655-1084 limits assumed): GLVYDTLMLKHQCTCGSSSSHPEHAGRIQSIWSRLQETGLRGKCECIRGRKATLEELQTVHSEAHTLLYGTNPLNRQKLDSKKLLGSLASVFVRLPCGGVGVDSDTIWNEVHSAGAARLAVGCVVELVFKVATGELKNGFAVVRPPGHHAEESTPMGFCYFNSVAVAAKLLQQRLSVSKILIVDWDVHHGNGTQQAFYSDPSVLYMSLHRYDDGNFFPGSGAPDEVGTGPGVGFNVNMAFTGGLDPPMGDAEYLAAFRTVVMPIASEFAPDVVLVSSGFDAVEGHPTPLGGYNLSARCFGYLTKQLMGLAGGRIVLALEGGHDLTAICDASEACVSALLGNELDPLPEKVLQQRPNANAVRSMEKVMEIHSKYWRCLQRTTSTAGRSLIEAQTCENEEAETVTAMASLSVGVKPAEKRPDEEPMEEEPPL
HDAC1, sequence (Q13547 9-321 limits assumed): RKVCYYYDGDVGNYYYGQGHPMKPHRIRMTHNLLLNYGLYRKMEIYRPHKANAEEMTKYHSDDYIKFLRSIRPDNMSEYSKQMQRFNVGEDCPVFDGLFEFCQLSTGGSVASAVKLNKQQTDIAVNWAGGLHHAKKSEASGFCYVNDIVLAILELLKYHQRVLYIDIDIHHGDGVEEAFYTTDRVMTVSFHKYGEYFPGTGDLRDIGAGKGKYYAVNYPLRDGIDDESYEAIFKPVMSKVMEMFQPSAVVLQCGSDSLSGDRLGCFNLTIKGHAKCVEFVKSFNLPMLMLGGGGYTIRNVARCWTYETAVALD

`O=C(NO)c1cccc2ccccc12` [Cpd2, 1-naphthohydroxamic acid] showed a Hematocrit ([1]; normal range 0.3–0.4) of 0.4±0.01 l/l, a Uric acid ([1]; normal range 0.4–3.2) of 0.9 ± 1.0 mg/dL and a Leukocytes ([1]; normal range 1.8–6.1) of 4.4 ± 1.8 nL⁻¹. It also gave a Calcium ([1]; normal range 2.1–2.4) of 2.4 ± 0.4 mmol/L, a Potassium ([1]; normal range 3.8–6.4) of 6.9 ± 2.2 mmol/L and an Erythrocytes ([1]; normal range 5.5–8.2) of 7.6 ± 0.3 pL⁻¹. The Hemoglobin ([1]; normal range 9.4–12.7) was 12.4 ± 0.7 g/dL, the Urea ([1]; normal range 17.4–38.3) was 23.5 ± 6.4 mg/dL and the AP ([1]; normal range 62.5–117.6) was 123.8±35.8 U/l. It also gave a Chloride ([1]; normal range 97.3–109.7) of 99.9 ± 2.2 mmol/L, a Sodium ([1]; normal range 123.4–135.7) of 136.8 ± 5.3 mmol/L and a Glucose ([1]; normal range 176.8–238.6) of 187.8 ± 39.1 mg/dL. It also gave a Thrombocytes ([1]; normal range 242.5–806.8) of 682.0 ± 151.1 nL⁻¹, a GGT ([1]; normal range −1.9 to 1.0) of −2.0±1.0 U/l and an IC50 [2] greater than 75.6 µM. The IC50 [3] was greater than 75.6 µM, the IC50 [4] was 34 µM and 33.7 µM and the half-life ([5]; NMRI Foxn1 nude, mouse, plasma, ip, 100 mg/kg, intraperitoneal 100 mg/kg, NMRI Foxn1 nude mice, read-out: half-life in blood plasma) was roughly 15 min. For the same compound, the plasma peak concentration ([5]; intraperitoneal, single dose of 100 mg/kg, mice) was ~ 30 μM, the “tubulin and histone 4 acetylation in PBMC” value [6] was “absence of tubulin acetylation and absence of histone 4 acetylation” and the IC50 [7] was greater than 75.6 µM. The “whole acetyl-lysine mean fluorescent values (Blank-corrected)” value ([8]; 20µM, solvent 34.4, second experiment) was 56.9, the “whole acetyl-lysine mean fluorescent values (Blank-corrected)” value ([8]; 40µM, solvent 24.7, IMR-32 cells, 24 h per Figure 1c) was 36.9 and the “Dose-limiting toxicities (DLTs)” value ([9]; intraperitoneal, increasing doses 40 up to 400 mg/kg per day) was “weight loss and signs of liver toxicity”. For the same compound, the “body weight and blood parameters at MTD” value ([9]; mouse, in vivo) was “neither body weight (Figure 2a) nor blood parameters were critically changed” and the MTD [10] was 50 mg/kg/day.
